The text below walks through data of US8835428B2, “Diacylglycerol acyltransferase inhibitors” (Piramal Enterprises Limited, priority 2008, dated 2014).

Structures are written as SMILES.

The target of the first experiment is T1, hDGAT1 (Homo sapiens, UniProt O75907).
T1 construct: host or cells: Sf9 insect cells (baculovirus); microsomal preparation
T1 sequence (O75907 1-488): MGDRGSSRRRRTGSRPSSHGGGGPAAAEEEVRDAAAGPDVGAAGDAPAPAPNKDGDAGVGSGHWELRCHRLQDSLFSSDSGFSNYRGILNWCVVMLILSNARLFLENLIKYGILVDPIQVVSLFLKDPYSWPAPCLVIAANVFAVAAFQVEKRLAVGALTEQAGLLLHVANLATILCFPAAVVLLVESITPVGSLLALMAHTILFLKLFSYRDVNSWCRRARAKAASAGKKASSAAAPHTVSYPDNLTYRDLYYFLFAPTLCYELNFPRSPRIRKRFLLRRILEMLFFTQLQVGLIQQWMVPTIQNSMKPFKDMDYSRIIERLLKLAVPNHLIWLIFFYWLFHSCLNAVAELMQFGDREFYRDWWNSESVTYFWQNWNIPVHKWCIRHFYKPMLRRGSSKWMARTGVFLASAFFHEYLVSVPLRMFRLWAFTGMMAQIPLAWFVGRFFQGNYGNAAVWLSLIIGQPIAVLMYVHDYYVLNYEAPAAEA
The experiment is described as follows: In-vitro DGAT1 assay (hDGAT1 microsomes from Sf9 cells, 14C oleoyl CoA, triglyceride formation). It counts as biochemical. As to conditions: At 1 μM. In short, it runs like this:
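Human DGAT1 in baculovirus-infected Sf9 microsomes (2.5–10 μg), [14C]oleoyl-CoA with 409.5, 1228.5 or 1638 μM 1,2-dioleoyl-sn-glycerol, Tris-HCl pH 7.4 buffer with BSA. Compounds screened at 10, 5 and 1 μM in duplicate. Reaction 10 min at 37 °C; heptane-extracted [14C]triglyceride counted by scintillation.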
`CC(C)C(NC(=O)c1cc(-c2ccc(OCc3ccccc3)cc2)no1)C(=O)O` (stereo not drawn) [Example 322, 2-(3-(4-(Benzyloxy)phenyl)isoxazole-5-carboxamido)-3-methylbutanoic acid]: the inhibition (in general, the share of the control response that was lost under treatment) at 1 µM was 0 to 50%.
The same measure, in the same setting: to `Cc1ccc(F)c(NC(=O)Nc2ccc(-c3cc(C(=O)NC(C(=O)O)C(C)C)on3)cc2)c1` (stereo not drawn) [Example 156, 2-(3-(4-(3-(2-fluoro-5-methylphenyl)ureido)phenyl)isoxazole-5-carboxamido)-3-methylbutanoic acid] belongs 75 to 100%; to `Cc1ccc(Cl)cc1NC(=O)Nc1ccc(-c2cc(C(=O)N[C@H](C(=O)O)C(C)C)on2)cc1` [Example 195, (S)-2-(3-(4-(3-(5-chloro-2-methylphenyl)ureido)phenyl)isoxazole-5-carboxamido)-3-methylbutanoic acid], 75 to 100%; to `COC(=O)[C@H](NC(=O)c1cc(-c2ccc(NS(=O)(=O)c3ccccc3F)cc2)no1)C(C)C` [Example 315, (R)-methyl 2-(3-(4-(2-fluorophenylsulfonamido)phenyl)isoxazole-5-carboxamido)-3-methylbutanoate], 0 to 50%.
Still for that read-out and setting: to `CC(C)C(NC(=O)c1cc(-c2ccc(NC(=O)Nc3cc(F)cc(F)c3)cc2)no1)C(=O)O` (stereo not drawn) [Example 160, 2-(3-(4-(3-(3,5-difluorophenyl)ureido)phenyl)isoxazole-5-carboxamido)-3-methylbutanoic acid] belongs 75 to 100%; to `CC(C)[C@@H](C(=O)O)N(C)C(=O)c1cc(-c2ccc(NC(=O)Nc3ccccc3Cl)cc2)no1` [Example 314, (S)-2-(3-(4-(3-(2-chlorophenyl)ureido)phenyl)-N-methylisoxazole-5-carboxamido)-3-methylbutanoic acid], 50 to 75%.
The same measure, in the same setting: to `CC(C)[C@@H](NC(=O)c1cc(-c2ccc(NC(=O)Nc3ccccc3F)cc2)no1)C(=O)O` [Example 258, (R)-2-(3-(4-(3-(2-Fluorophenyl)ureido)phenyl)isoxazole-5-carboxamido)-3-methylbutanoic acid] belongs 50 to 75%; to `COC(=O)[C@H](NC(=O)c1cc(-c2ccc(NC(=O)Nc3ccccc3F)cc2)no1)C(C)C` [Example 257, (R)-Methyl 2-(3-(4-(3-(2-fluorophenyl)ureido)phenyl)isoxazole-5-carboxamido)-3-methylbutanoate], 0 to 50%; to `CC(C)[C@H](NC(=O)c1cc(-c2ccc(NC(=O)Nc3ccc(OC(F)(F)F)cc3)cc2)no1)C(=O)O` [Example 187, (S)-3-methyl-2-(3-(4-(3-(4-(trifluoromethoxy)phenyl)ureido)phenyl)isoxazole-5-carboxamido)butanoic acid], 75 to 100%.
`COC(=O)[C@H](NC(=O)c1cc(-c2ccc(NC(=O)Nc3ccccc3C#N)cc2)no1)C(C)C` [Example 216, (R)-methyl 2-(3-(4-(3-(2-cyanophenyl)ureido)phenyl)isoxazole-5-carboxamido)-3-methylbutanoate] came in with an inhibition at 1 µM of 0 to 50%.
Still for that read-out and setting: to `CC(C)C(NC(=O)c1cc(-c2ccc(NC(=O)C(=O)Nc3ccc(F)cc3F)cc2)no1)C(=O)O` (stereo not drawn) [Example 339, 2-(3-(4-(2-(2,4-difluorophenylamino)-2-oxoacetamido)phenyl)isoxazole-5-carboxamido)-3-methylbutanoic acid] belongs 0 to 50%.
On the same count and under the same terms, as for `CC(C)[C@H](NC(=O)c1cc(-c2ccc(NC(=O)Nc3ccccc3OC(F)(F)F)cc2)no1)C(=O)O` [Example 203, (S)-3-methyl-2-(3-(4-(3-(2-(trifluoromethoxy)phenyl)ureido)phenyl)isoxazole-5-carboxamido)butanoic acid], the figure is 75 to 100%; as for `CCS/C(=N\[C@@H](C(=O)OC)C(C)C)c1cc(-c2ccc(NC(=O)Nc3ccccc3F)cc2)no1` [Example 224, (R,Z)-Methyl 2-(ethylthio(3-(4-(3-(2-fluorophenyl)ureido)phenyl)isoxazol-5-yl)methyleneamino)-3-methylbutanoate], 0 to 50%; as for `CC(C)C(NC(=O)c1cc(-c2ccc(NC(=O)[C@H](O)c3ccccc3)cc2)no1)C(=O)O` (stereo partly drawn) [Example 341, 2-(3-(4-((R)-2-hydroxy-2-phenylacetamido)phenyl)isoxazole-5-carboxamido)-3-methylbutanoic acid], 0 to 50%.

The experiment is the same for the next values; noted with them: At 5 μM.
Turning to `COC(=O)[C@@H](NC(=O)c1nc(-c2ccc(NC(=O)Nc3ccccc3F)cc2)no1)C(C)C` [Example 348, (S)-methyl 2-(3-(4-(3-(2-fluorophenyl)ureido)phenyl)-1,2,4-oxadiazole-5-carboxamido)-3-methylbutanoate], the inhibition at 5 µM was 0 to 50%.
Same read-out and setting: to `COC(=O)C(NC(=O)c1cc(-c2ccc(NC(=O)NS(=O)(=O)c3ccccc3C)cc2)no1)C(C)C` (stereo not drawn) [Example 263, Methyl 3-methyl-2-(3-(4-(3-(o-tolylsulfonyl)ureido)phenyl)isoxazole-5-carboxamido)butanoate] belongs 0 to 50%; to `CC(C)[C@H](NC(=O)c1cc(-c2ccc(NC(=S)Nc3cccc(F)c3)cc2)no1)C(=O)O` [Example 268, (S)-2-(3-(4-(3-(3-fluorophenyl)thioureido)phenyl)isoxazole-5-carboxamido)-3-methylbutanoic acid], 50 to 75%; to `COC(=O)C(NC(=O)c1cc(-c2ccc(NC(=O)Nc3ccc(F)cc3C)cc2)no1)C(C)C` (stereo not drawn) [Example 284, Methyl 2-(3-(4-(3-(4-fluoro-2-methylphenyl)ureido)phenyl)isoxazole-5-carboxamido)-3-methylbutanoate], 50 to 75%.
Same read-out and setting: to `COC(=O)C(Cc1ccccc1)NC(=O)c1cc(-c2ccc(NC(=O)Nc3ccccc3F)cc2)no1` (stereo not drawn) [Example 241, Methyl 2-(3-(4-(3-(2-fluorophenyl)ureido)phenyl)isoxazole-5-carboxamido)-3-phenylpropanoate] belongs 0 to 50%; to `CC(C)[C@H](NC(=O)c1cc(-c2ccc(NC(=O)Nc3ccccc3F)cc2)no1)C(=O)OC(C)(C)C` [Example 300, (S)-tert-butyl 2-(3-(4-(3-(2-fluorophenyl)ureido)phenyl)isoxazole-5-carboxamido)-3-methylbutanoate], 50 to 75%; to `COC(=O)[C@@H](NC(=O)c1cc(-c2ccc(NC(=O)Nc3ccccc3F)cc2F)no1)C(C)C` [Example 143, (S)-methyl 2-(3-(2-fluoro-4-(3-(2-fluorophenyl)ureido)phenyl)isoxazole-5-carboxamido)-3-methylbutanoate], 50 to 75%.

The same experiment, now with this note: At 10 μM.
As for `Cc1cc(-c2cc(C(=O)NC(C(=O)O)C(C)C)on2)ccc1NC(=O)Nc1c(F)cccc1F` (stereo not drawn) [Example 98, 2-(3-(4-(3-(2,6-Difluorophenyl)ureido)-3-methylphenyl)isoxazole-5-carboxamido)-3-methylbutanoic acid], the inhibition at 10 µM was 50 to 75%.
`CC(C)[C@H](NC(=O)c1cc(-c2ccc(NC(=O)NC3CCCCC3)cc2)no1)C(=O)O` [Example 81, (S)-2-({3-[4-(3-cyclohexyl-ureido)-phenyl]-isoxazole-5-carbonyl}-amino)-3-methyl-butyric acid]: the inhibition at 10 µM lay within 75 to 100%.
The compound `COC[C@H](NC(=O)c1cc(-c2cccc(Nc3nc4ccc(F)cc4s3)c2)no1)C(=O)OC` [Example 28, (S)-2-({3-[3-(6-Fluoro-benzothiazol-2-ylamino)-phenyl]-isoxazole-5-carbonyl}-amino)-3-methoxy-propionic acid methyl ester] displayed an inhibition at 10 µM of 0 to 50%.
Same read-out and setting: to `Cc1cc(-c2cc(C(=O)NC(C(=O)O)C(C)C)on2)ccc1NC(=O)Nc1ccc(F)cc1F` (stereo not drawn) [Example 103, 2-(3-(4-(3-(2,4-Difluorophenyl)ureido)-3-methylphenyl)isoxazole-5-carboxamido)-3-methylbutanoic acid] belongs 75 to 100%; to `COC(=O)[C@H](CO)NC(=O)c1cc(-c2ccc(Nc3nc4ccc(F)cc4s3)cc2)no1` [Example 9, (S)-2-({3-[4-(6-Fluoro-benzothiazol-2-ylamino)-phenyl]-isoxazole-5-carbonyl}-amino)-3-hydroxy-propionic acid methyl ester], 0 to 50%.
For `COC(=O)C(NC(=O)c1cc(-c2ccc(NC(=O)Nc3ccc(F)cc3)cc2C)no1)C(C)C` (stereo not drawn) [Example 133, Methyl 2-(3-(4-(3-(4-fluorophenyl)ureido)-2-methylphenyl)isoxazole-5-carboxamido)-3-methylbutanoate], the inhibition at 10 µM lay within 50 to 75%.
For `CC(C)CC(NC(=O)c1cc(-c2ccc(NC(=O)NCc3ccccc3)cc2)no1)C(=O)O` (stereo not drawn) [Example 110, 2-(3-(4-(3-Benzylureido)phenyl)isoxazole-5-carboxamido)-4-methyl pentanoic acid], the inhibition at 10 µM lay in the range of 0 to 50%.
As for `COC(=O)CNC(=S)c1cc(-c2ccc(Nc3nc4ccc(F)cc4s3)cc2)no1` [Example 60, ({3-[4-(6-fluoro-benzothiazol-2-ylamino)-phenyl]-isoxazole-5-carbothioyl}-amino)-acetic acid methyl ester], the inhibition at 10 µM lay within 0 to 50%.
The compound `CCOC(=O)c1cc(-c2ccc(Nc3nc4ccc(F)cc4s3)cc2)no1` [Example 1, 3-[4-(6-Fluoro-benzothiazol-2-ylamino)-phenyl]-isoxazole-5-carboxylic acid ethyl ester] yielded an inhibition at 10 µM of 50 to 75%.
